Some test systems named below: SNB-78; M14; HCT-116; KM-20L2; HOP-92; PC-3; DLD-1; UACC-257; MCF7; DMS-114; OVCAR-5; U-251; SK-MEL-28; HCT-15; M19-MEL; LOX IMVI.
Assay in all cases: DTP human tumour cell line panel, 48 h

One may read the GI50 as the concentration giving 50% growth inhibition.

Molecules are shown by their SMILES. Where “and” joins values, the source holds several entries; their conditions need not be identical. Equal values may be shown once.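 The compound was tested at five concentrations on cells cultured in 96-well plates, with a 48-hour exposure period. Here, GI50 denotes the concentration required for 50% inhibition of growth.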 Calls of active or inactive are those of the source. Cut-off read from the data, not from the text of the source: active = GI50 up to about 1.1 µM and inactive = higher.

As to `NC1=NC(=O)/C(=C2\CCNC(=O)c3[nH]c(Br)cc32)N1` [HYMENIALDISINE], the GI50 in the assay on SNB-78 was 86.3 µM (inactive); in the assay with M14, 9.89 µM (inactive); in the assay on HCT-116, 7.16 µM (inactive) and 5.57 µM (inactive); with KM-20L2, 70.1 µM (inactive); with HOP-92 it was 29.2 µM (inactive) and 40.8 µM (inactive); with PC-3 it was 56.6 µM (inactive). In addition, the GI50 in the assay with DLD-1 was 37.6 µM (inactive); in the assay with UACC-257, 23.7 µM (inactive) and 18.3 µM (inactive); in the assay with MCF7, 40.9 µM (inactive) and 80.7 µM (inactive); in the assay on DMS-114 it was 13 µM (inactive); in the assay on OVCAR-5, > 52.1 µM (inactive) and > 57.5 µM (inactive); with U-251, 26.4 µM (inactive) and 18.6 µM (inactive). Moreover, the GI50 was 7.74 µM (inactive) and 13.8 µM (inactive) with SK-MEL-28; 29.7 µM and 42.5 µM with HCT-15; 48.5 µM (inactive) in the assay on M19-MEL; 4.89 µM (inactive) and 4.57 µM (inactive) with LOX IMVI.

The values above are taken from ChEMBL document CHEMBL1201862, “PubChem BioAssay data set” (2004).
